From ChEMBL document CHEMBL1150095, “Antitumor activity and stereochemistry of acetylenic alcohols from the sponge Cribrochalina vasculum” (1995)
The source made the active and inactive calls. No cut-off for these calls is given here.

Key:
Type in all cases: functional
[1] = test system: NCI-H522; experiment: Antitumor activity against human NCI-H522 cells
[2] = test system: IGROV-1; experiment: Antitumor activity against human IGROV1 cells
[3] = test system: IGROV-1; experiment: Antitumor activity against human IGROV1 cell xenografted athymic mouse assessed as increase in life span at 50 mg/kg, ip once daily; conditions: route intraperitoneal

C#C[C@@H](O)/C=C/CCCCCCCCC(C)CCCCCCCC (some centres undefined)
Activity [1]: Active | Activity [2]: Active

C#C[C@@H](O)/C=C/CCCCCCCCCCCCCCC
Activity [3]: 36.5 days | Activity [1]: Active | Activity [2]: Active

C#C[C@@H](O)/C=C/CCCCCCCCCCC(C)CCCC (some centres undefined)
Activity [1]: Active | Activity [2]: Active

C#C[C@@H](O)/C=C/CCCCCCCCCCCCCCCC
Activity [1]: Active | Activity [2]: Active
